Reference: patent US8304418B2, “Pyrazolopyrimidinone kinase inhibitor” (Agennix AG, priority 2007, dated 2012)
pIC50: −log10 of the molar value. In brackets after ≈: the same amount, converted by molar mass. Several values for one entry are separate records, joined by “and”; a condition that tells them apart may be missing. Equal entries are not always repeated. Where two headings read alike, the source gives them in different places.

Key:
[1] = test system: cell lines A2780, HCT-116, HT-29, HepG2, NCI/ADR-RES, OVCAR3, H460, IMR-90, T98G, A549 among others; assay: Inhibition of proliferation in a set of cancer-model cell lines; assay type: cell-based; details: units (μM and nM) printed inside the value, read-out: IC50 values, inhibition of proliferation (range over cell lines)
Description: (§1) The assays used for determining the properties of the kinase inhibitors were performed in accordance with standard procedures well known to those skilled in the art. For example, assays for determining inhibitory activity on CDKs or in cellular assays are described in WO 00/218962, WO 2005/026129, and WO 2005/063765. Solubility assays at pH 7.4 were essentially performed as described by Avdeef, A. in Pharmacokinetic Optimization in Drug Research; Testa, B.; van de Waterbeemd, H.; Folkers, G.; Guy, R. Eds.; Wiley-VHC: Zurich, 2001; pp 305-326. PAMPA permeability assays at pH 7.4 were essentially performed as described in Kansy et al., J. Med. Chem. 41: 1007-10, 1998.

[2] = test system: human A2780 ovarian tumor cells
Description: Compound P (as hydrochloric acid salt) was formulated in 30% PEG300/70% water, and Compound I (as hydrochloric acid salt) was formulated in 20% PEG300/80% D5W (5% dextrose water) and administered by oral gavage twice every day for 10 days (bid×10), while the Cytoxan control which was administered i.p. in saline every two days over a period of 10 days (q2 d×5): […]

[3] = test system: human A2780 ovarian tumor cells; remark: listed apart in the source
Description: (§4) Xenograft Tumor-Models: 100 athymic nu/nu female mice (6-8 weeks old) from CRL were allowed to acclimate for 4 days. […] The 3rd passage of cells with approximate 90% confluence was used for these experiments. Briefly, on Day 0, mice were inoculated with 0.1 ml (total 5×10^6 cells) of the respective cell-type as a cell suspension (50×10^6 cells/ml) by subcutaneous injection into the fat pad area near the mammary gland under light anesthesia. When the average tumor weight in all mice reached over 100 mg (day 10), 80 animals with an average tumor size of 130 mg were selected and were randomly divided into 8 groups.
(§5) A 20 G gavage needle was used for the oral treatment.
(§6) Tumor growth and body weight were monitored and recorded three times a week. Tumors were measured by determining the length and width of the tumor with a digital caliper. Tumor weight was estimated using the following formula: Tumor Weight (mg)=(w^2×1)×0.52 where w=width and l=length in mm of the tumor.
(§7) Experimental treatment may cause partial regression (PR) or complete regression (CR) of tumors. PR is defined when the tumor size is 50% or less than the starting (day 1) size but greater than 0.0 mg for three consecutive measurements during the course of the study. CR occurs when there is no measurable tumor mass for three consecutive measurements. Cures are defined when CR are maintained until the completion of the experiment.
(§8) Mice were sacrificed when their tumors reached the 1000 mm^3 endpoint volume. Treatment efficacy was determined as Log Cell Kill (LCK).
(§9) Toxic deaths are defined as deaths caused by compound treatment and not by advanced disease state. […] Non-tumor related deaths after this point are recorded, but not considered toxic deaths.
(§10) Briefly, the empirical distributions of T and Td were derived from B=1000 realisations of random selection of n individual animals with replacement from the set i=1, . . . , n of the appropriate group of mice containing n evaluable animals, estimating the mean tumor size for such selection of animals for each time-point, and linear regression analysis from a semi-log plot of such averages against time. Dead mice and mice with no measurable tumor size were treated as missing data and were ignored when calculating the average.

[4] = Solubility assay at pH 7.4; assay type: physicochemical; details: pH 7.4, aqueous buffer
Description: as §1

[5] = test system: HCT116 colon carcinoma cells
Description: as §4, §5, §6, §7, §8, §9, §10

[6] = PAMPA permeability assay at pH 7.4; assay type: in vitro ADME
Description: as §1

[7] = test system: H460 NSCLC; details: for Toxic Mortality: N=10; for Max % TGI (d): day 13
[8] = test system: CDK4/6-specific phosphorylation of Rb on serine 780; assay: In-cell Rb phosphorylation (immunoblot); assay type: cell-based, human; details: 1 h, read-out: IC50 (uM) - Rb-5 phosphorylation
Text: (§2) This set of assays represents CDKs involved in cell cycle progression (CDK1, 4/6), and the “regulatory CDK” (CDK9) which is involved in transcriptional regulation.
(§3) The following cancer cell lines were investigated in the course of these studies: A2780 (ovarian), HCT116 (colon), RPMI8226 (myeloma), SKMel28 (melanoma), Colo205 (colorectal), MDA-MB-435 (melanoma), MDA-MB-453 (breast, carcinoma), MDA-MB-468 (breast, adenocarcinoma), A549 (lung), Raji (lymphoma, Burkitt). Cell lines were obtained from public repositories.
CDK4/6-specific phosphorylation of Rb on serine 780 (Ser780phos). Asynchronous growing cells were treated with an appropriate concentration of test compound or DMSO for 1 hour. Proteins were extracted using the AllPrep RNA/Protein kit according to the manufacturer's recommendations (Qiagen, Germany). Rb was immunoprecipitated over night using Ab05 antibody (Oncogene Inc.). Proteins were separated by SDS-PAGE, blotted to PVDF membranes and analyzed with antibodies against total (sc-102; Santa Cruz) or Ser780-phosphorylated Rb proteins (Cell Signalling). Visualization and quantification was performed as above.

[9] = target: CDK6 (Homo sapiens, UniProt Q00534); assay: Biochemical CDK6 inhibition assay
Description: as §1

[10] = test system: CDK9-specific phosphorylation of RNA polymerase II (RNAPII) on serine 2; assay: In-cell RNAPII phosphorylation (immunoblot); assay type: cell-based, human; details: 3 h
Description: as §3
CDK9-specific phosphorylation of RNA polymerase II (RNAPII) on Serine 2 (Ser2). Asynchronous cells were treated with an appropriate concentration of test compound or DMSO as a control. After 3 h incubation (37° C./5% CO2) cells were lysed with CLB-1 lysis buffer (Zeptosense, Switzerland), the lysate was cleared by centrifugation (10 min, 13000 rpm, RT) and subjected to SDS-PAGE. Total protein was blotted on PVDF membranes and analyzed using antibodies against S2-phosphorylated RNAPII (H5; Covance) or total RNAPII (N-20; Santa Cruz) as an expression control. Visualization was conducted using secondary Alexa680- or IR800-coupled antibodies (Molecular Probes) against mouse or rabbit Fc tails on the Odyssey-system (Licor). Specific bands were quantified and IC50 values of inhibition of RNAPII phosphorylation were estimated.

[11] = test system: CDK1-dependent Eg-5 phosphorylation on threonine 927; assay: In-cell Eg-5 phosphorylation (immunoblot); assay type: cell-based, human; details: 1 h
Text: as §2, §3
CDK1-dependent Eg-5 phosphorylation on threonine 927 (Thr927phos). Thr927phos was investigated by arresting cells over night in G2/M phase with 25 ng/ml nocodazole (optimized final concentration) followed by treatment with DMSO as control or an appropriate concentration of test compound for 1 hour. Detached as well as adherent cells were collected and lysed with CLB-1 lysis buffer. the lysate cleared by centrifugation and subjected to SDS-PAGE. The proteins were blotted on PVDF membranes and subsequently analyzed by antibodies against total Eg-5 (Becton Dickinson) and Eg-5 Thr927phos (Bio legend). Visualization and estimation of IC50 was conducted as above.

[12] = 30 [28] mg/kg po bidx10, day 10
[13] = HCT116, 100 [93] mg/kg po qdx10

CDK6, sequence (Q00534 whole entry): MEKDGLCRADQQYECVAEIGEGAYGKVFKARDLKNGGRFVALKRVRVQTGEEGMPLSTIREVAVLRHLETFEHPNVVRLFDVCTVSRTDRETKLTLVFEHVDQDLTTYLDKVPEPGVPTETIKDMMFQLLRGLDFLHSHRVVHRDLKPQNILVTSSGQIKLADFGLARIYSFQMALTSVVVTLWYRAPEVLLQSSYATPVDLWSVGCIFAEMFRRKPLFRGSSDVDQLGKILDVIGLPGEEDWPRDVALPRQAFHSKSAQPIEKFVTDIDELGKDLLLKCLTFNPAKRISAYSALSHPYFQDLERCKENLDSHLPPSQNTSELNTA
CDK6, sequence (P30281 whole entry partner): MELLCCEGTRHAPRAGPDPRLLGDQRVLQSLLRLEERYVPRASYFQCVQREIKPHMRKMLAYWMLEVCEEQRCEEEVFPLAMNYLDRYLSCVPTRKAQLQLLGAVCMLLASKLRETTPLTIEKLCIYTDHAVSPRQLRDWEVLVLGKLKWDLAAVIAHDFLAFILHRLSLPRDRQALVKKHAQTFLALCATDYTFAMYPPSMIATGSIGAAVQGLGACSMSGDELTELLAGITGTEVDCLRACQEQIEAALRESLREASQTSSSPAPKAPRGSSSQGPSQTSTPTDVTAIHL

CC(C)c1nn(-c2c(Cl)cccc2Cl)c2nc(Cc3ccc(CN4CCCC4)c(O)c3)[nH]c(=O)c12 [Compound P, 1-(2,6-dichlorophenyl)-6-(3-hydroxy-4-pyrrolidinomethyl-phenyl)methyl-3-isopropyl-pyrazolo[3,4-d]pyrimidin-4-one]
IC50 [1]: 0.016 to 1.6 µM | LCK ± CI (95%) (Td: 2.1 d) ([2]; 15 [14] mg/kg po bidx10): 0.20 ± 0.16 and 0.20 | Toxic Mortality ([2]; 15 [14] mg/kg po bidx10, N=10): 0 | Max % TGI (d) ([2]; 15 [14] mg/kg po bidx10, day 10): 34 (10) % | Max % BW Loss (d) ([2]; 15 [14 free base] mg/kg po bidx10, HCl salt, day 6): 0 (6) % | LCK ± CI (95%) (Td: 2.1 d) ([2]; 30 [28] mg/kg po bidx10): 0.44 ± 0.19 and 0.44 | Toxic Mortality ([2]; 30 [28] mg/kg po bidx10, N=10): 0 | Max % BW Loss (d) [2, 12]: 0.1 (10) % | Max % TGI (d) [2, 12]: 54 (10) % | LCK ± CI (95%) (Td: 2.1 d) ([2]; 50 [47] mg/kg po bidx10): 1.06 ± 0.48 and 1.06 | Toxic Mortality ([2]; 50 [47] mg/kg po bidx10, N=10): 0 | Max % TGI (d) ([2]; 50 [47] mg/kg po bidx10, day 13): 81 (13) % | Max % BW Loss (d) ([2]; 50 [47] mg/kg po bidx10, day 15): 4.7 (15) % | LCK ± CI (95%) (Td: 1.7 d) ([3]; 40 [37] mg/kg po qdx10): 0.34 ± 0.21 and 0.34 | Toxic Mortality ([3]; 40 [37] mg/kg po qdx10, N=10): 0 | Max % TGI (d) ([3]; 40 [37] mg/kg po qdx10, day 11): 46.2 (11) % | LCK ± CI (95%) (Td: 1.7 d) ([3]; 70 [65] mg/kg po qdx10): 0.75 ± 0.46 and 0.75 | Toxic Mortality ([3]; 70 [65] mg/kg po qdx10, N=10): 0 | Max % TGI (d) ([3]; 70 [65] mg/kg po qdx10, day 11): 61.1 (11) % | LCK ± CI (95%) (Td: 1.7 d) ([3]; 100 [93] mg/kg po qdx9): 1.78 ± 0.56 and 1.78 | Toxic Mortality ([3]; 100 [93] mg/kg po qdx9): 1/10 | Max % TGI (d) ([3]; 100 [93] mg/kg po qdx9, day 11): 83.9 (11) % | solubility [4]: ~210 µM (≈ 108 µg/mL) | LCK ± CI (95%) (Td: 6.8 d) ([5]; HCT116, 40 [37] mg/kg po qdx10): 0.23 ± 0.11 and 0.23 | Max % TGI (d) ([5]; HCT116, 40 [37] mg/kg po qdx10, day 20): 36.2 (20) % | LCK ± CI (95%) (Td: 6.8 d) ([5]; HCT116, 70 [65] mg/kg po qdx10): 0.41 ± 0.22 and 0.41 | Max % TGI (d) ([5]; HCT116, 70 [65] mg/kg po qdx10, day 32): 50.2 (32) % | LCK ± CI (95%) (Td: 6.8 d) [5, 13]: 0.38 ± 0.13 and 0.38 | Toxic Mortality [5, 13]: 1/10 | Max % TGI (d) ([5]; HCT116, 100 [93] mg/kg po qdx10, day 16): 60.1 (16) % | Max % BW Loss (d) ([5]; mouse, in vivo, po): 17.3 (16) % | permeability in a PAMPA assay [6]: about 57% | LCK ± CI (95%) (Td: 2.6 d) ([7]; H460, 40 [37] mg/kg po qdx10): 0.22 ± 0.12 and 0.22 | Toxic Mortality ([7]; H460, 40 [37] mg/kg po qdx10): 0 | Max % TGI (d) ([7]; H460, 40 [37] mg/kg po qdx10): 29.6 (13) % | LCK ± CI (95%) (Td: 2.6 d) ([7]; H460, 70 [65] mg/kg po qdx10): 0.26 ± 0.12 and 0.26 | Toxic Mortality ([7]; H460, 70 [65] mg/kg po qdx10): 0 | Max % TGI (d) ([7]; H460, 70 [65] mg/kg po qdx10): 33.9 (13) % | LCK ± CI (95%) (Td: 2.6 d) ([7]; H460, 100 [93] mg/kg po qdx10): 0.54 ± 0.17 and 0.48 and 0.54 | Toxic Mortality ([7]; H460, 100 [93] mg/kg po qdx10): 0 | Max % TGI (d) ([7]; H460, 100 [93] mg/kg po qdx10): 48.7 (13) % | Max % BW Loss (d) ([7]; mouse, in vivo, po): 1.0 (8) % and 0% and 7.4 (13) %

COc1ccc(F)c(F)c1C(=O)c1cnc(NC2CCN(S(C)(=O)=O)CC2)nc1N [Compound R547]
IC50 ([8]; A2780 cells): ~0.1 µM | IC50 ([8]; Colo205 cells): ~0.1 µM | IC50 ([8]; HCT116 cells): ~0.1 µM | IC50 ([8]; MDA-MB-435 cells): ~0.3 µM | IC50 ([8]; RPMI8226 cells): ~0.3 µM | IC50 ([8]; Sk-mel-28 cells): ~0.1 µM | LCK ± CI (95%) (Td: 1.7 d) ([3]; 100 mg/kg po qdx1): 1.05 ± 0.56 | Max % BW Loss (d) ([3]; 100 mg/kg po qdx1 (planned qdx10), day 9): 7.5 (9) % | Max % TGI (d) ([3]; 100 mg/kg po qdx1, day 11): 68.5 (11) % | pIC50 [9]: ~8.00 | LCK ± CI (95%) (Td: 6.8 d) ([5]; HCT116, 100 mg/kg po qdx10 (R547 suspension)): 0.70 ± 0.28 | Max % BW Loss (d) ([5]; HCT116, 100 mg/kg po qdx10 (R547 suspension), day 12): 14.5 (12) % | Max % TGI (d) ([5]; HCT116, 100 mg/kg po qdx10 (R547 suspension), day 16): 72.8 (16) % | LCK ± CI (95%) (Td: 2.6 d) ([7]; H460, 40 mg/kg po q2dx5): 0.48 ± 0.20 and 0.48 | Max % BW Loss (d) ([7]; H460, 40 mg/kg po q2dx5, day 8): 1.3 (8) % | Max % TGI (d) ([7]; H460, 40 mg/kg po q2dx5): 47.5 (13) % | IC50 ([10]; A2780 cells): ~1 µM | IC50 ([10]; Colo205 cells): ~0.5 µM | IC50 ([10]; HCT116 cells): ~0.3 µM | IC50 ([10]; MDA-MB-468 cells): ~0.3 µM | IC50 ([10]; RPMI8226 cells): ~0.5 µM | IC50 ([10]; Sk-mel-28 cells): ~0.3 µM | IC50 ([11]; A549 cells): ~0.03 µM | IC50 ([11]; A2780 cells): ~0.01 µM | IC50 ([11]; Colo205 cells): ~0.05 µM | IC50 ([11]; HCT116 cells): ~0.1 µM | IC50 ([11]; MDA-MB-435 cells): ~0.1 µM | IC50 ([11]; MDA-MB-453 cells): ~0.1 µM | IC50 ([11]; RPMI8226 cells): ~0.05 µM | IC50 ([11]; Raji cells): ~0.1 µM

O=P1(N(CCCl)CCCl)NCCCO1 (stereo not shown) [Cytoxan, cyclophosphamide]
LCK ± CI (95%) (Td: 2.1 d) ([2]; 100 mg/kg ip q2dx5): 3.56 ± 0.43 and 3.56 | Cure ([2]; 100 mg/kg ip q2dx5, N=10): 0 | Toxic Mortality ([2]; 100 mg/kg ip q2dx5, N=10): 0 | Max % BW Loss (d) ([2]; 100 mg/kg ip q2dx5, day 10): 5.9 (10) % | Max % TGI (d) ([2]; 100 mg/kg ip q2dx5, day 13): 98 (13) % | CR ([2]; 100 mg/kg ip q2dx5, mice with complete regression, N=10): 5 | PR ([2]; 100 mg/kg ip q2dx5, mice with partial regression, N=10): 5
